Test results from publication PMC11347369, “Synthesis and antibacterial action of 3’,6’-disubstituted spectinomycins” (The Journal of Antibiotics, 2024).
≈ marks a conversion by molar mass, not a printed value. Structures can show the parent of a compound that is named as a salt. Where two headings read alike, the source gives them in different places.

Experiments:
[1] = test system: M. tuberculosis H37Rv ∆1258c; assay: microbe, parasite or virus in culture; assay type: cell-based; settings: Mycobacterium tuberculosis, 168 h
[2] = test system: M. abscessus ATCC 19977 ∆2780c; assay: microbe, parasite or virus in culture; assay type: cell-based, Mycobacterium abscessus; settings: Mycobacteroides abscessus, ATCC19977, 72 h, read-out: ∆2780c MIC
[3] = test system: M. smegmatis strain MC^2 155; assay: MIC broth microdilution, M. smegmatis; assay type: cell-based, Mycobacterium smegmatis; settings: Mycolicibacterium smegmatis, MC^2155, 72 h, read-out: WT MIC
[4] = target: T1, M. smegmatis ribosomes (strain SZ380) (Mycolicibacterium smegmatis, UniProt A0QSG6); assay: Mycobacterial cell-free translation inhibition assay; assay type: biochemical, Mycobacterium smegmatis
T1 construct: S30 extracts were prepared by addition of dithiothreitol (DTT) to 1 mM and centrifugation; endogenous in cells; host or cells: M. smegmatis strain SZ380, S30 cell extract
T1 sequence (A0QSG6 whole entry): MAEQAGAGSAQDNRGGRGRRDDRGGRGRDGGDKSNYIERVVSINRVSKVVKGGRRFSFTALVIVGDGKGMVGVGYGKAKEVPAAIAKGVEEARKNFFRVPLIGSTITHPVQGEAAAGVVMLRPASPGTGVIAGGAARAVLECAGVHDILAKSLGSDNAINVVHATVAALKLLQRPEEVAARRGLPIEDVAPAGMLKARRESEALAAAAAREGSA
Method: Mycobacterial cell-free translation inhibition assays were performed as described previously. In brief, M. smegmatis strain SZ380 bacterial cells were disrupted and emulsified with a microfluidizer processor (Microfluidics, Westwood, MA, USA) at 25,000 lb/in^2. S30 extracts were prepared by addition of dithiothreitol (DTT) to 1 mM and centrifugation at 30,000 × g at 4 °C. Translation reaction mixtures containing either test article or DMSO vehicle control and 4 μl of the S30 extract, 0.2 mM amino acid mix, 6 μg tRNA (Sigma), 0.4 μg hFluc mRNA, 0.3 μl protease inhibitor (complete, EDTA-free, Roche), 12 U RNAse inhibitor (Ribolock, Thermo Scientific), 6 μl S30 premix without amino acids (Promega), plus water to a final reaction volume of 15 μl were incubated for 1 h at 37 °C. The reaction was stopped on ice before adding 75 μl of luciferase assay reagent (Promega) and recording of luminescence. Regression analysis and IC50 calculations were performed using GraphPad Prism version 9.3.1 by using the equation [log(inhibitor) vs. response–Variable slope (four parameters)] with the fitting method: least squares (ordinary) fit. Y = Bottom + (Top-Bottom)/(1 + 10^((X-LogIC50))).

[5] = test system: E. faecalis ATCC 29212; assay: MIC broth microdilution, E. faecalis; assay type: cell-based; settings: Enterococcus faecalis
[6] = test system: E. faecium ATCC 19434; assay: MIC broth microdilution, E. faecium; assay type: cell-based; settings: Enterococcus faecium
[7] = test system: S. aureus USA300; assay: MIC broth microdilution, S. aureus; assay type: cell-based; settings: Staphylococcus aureus, USA300, read-out: Minimum Inhibitory Concentration
[8] = test system: S. epidermidis ATCC 14990; assay: MIC broth microdilution, S. epidermidis; assay type: cell-based; settings: Staphylococcus epidermidis, ATCC14990, read-out: Minimum Inhibitory Concentration
[9] = test system: S. pneumoniae R6; assay: MIC broth microdilution, S. pneumoniae; assay type: cell-based; settings: Streptococcus pneumoniae, read-out: Minimum Inhibitory Concentration
[10] = test system: S. pyogenes ATCC 700294; assay: MIC broth microdilution, S. pyogenes; assay type: cell-based; settings: Streptococcus pyogenes
[11] = test system: A. baumannii ATCC 19606; assay: MIC broth microdilution, A. baumannii; assay type: cell-based, Acinetobacter baumannii; settings: Acinetobacter baumannii
[12] = test system: K. pneumoniae ATCC 700603; assay: MIC broth microdilution, K. pneumoniae; assay type: cell-based, Klebsiella pneumoniae; settings: Klebsiella pneumoniae, ATCC700603, read-out: Minimum Inhibitory Concentration
[13] = test system: P. aeruginosa ATCC 15692; assay: MIC broth microdilution, P. aeruginosa; assay type: cell-based, Pseudomonas aeruginosa; settings: Pseudomonas aeruginosa
[14] = test system: E. coli K12 ∆tolC; assay: microbe, parasite or virus in culture; assay type: cell-based; settings: Escherichia coli, read-out: Minimum Inhibitory Concentration
[15] = test system: M. tuberculosis H37Rv
[16] = test system: M. abscessus ATCC 19977
[17] = test system: E. coli K12; settings: E. coli K12 MIC versus K12 ∆tolC MIC
[18] = test system: M. tuberculosis H37Rv; assay: microbe, parasite or virus in culture; settings: Mycobacterium tuberculosis, 168 h, read-out: WT MIC
[19] = test system: M. abscessus ATCC 19977; assay: microbe, parasite or virus in culture; settings: Mycobacteroides abscessus, ATCC19977, 72 h, read-out: WT MIC
[20] = test system: E. coli K12; assay: microbe, parasite or virus in culture; settings: Escherichia coli, K12, read-out: Minimum Inhibitory Concentration
[21] = target: T1, M. smegmatis ribosomes (strain SZ380)
[22] = cell-free translation, M. smegmatis SZ380 S30 extract, luciferase readout, read-out: Ribo. IC50
[23] = ATCC29212, read-out: Minimum Inhibitory Concentration
[24] = ATCC19434, read-out: Minimum Inhibitory Concentration
[25] = ATCC700294, read-out: Minimum Inhibitory Concentration
[26] = ATCC19606, read-out: Minimum Inhibitory Concentration
[27] = ATCC15692, read-out: Minimum Inhibitory Concentration
[28] = previously reported; read-out: Ribo. IC50; cited from earlier work

SMILES | MIC [1] | MIC [2] | MIC [3] | IC50 [4, 22] | MIC [5, 23] | MIC [6, 24] | MIC [7] | MIC [8] | MIC [9] | MIC [10, 25] | MIC [11, 26] | MIC [12] | MIC [13, 27] | MIC [14] | Efflux Ratio [15] | Efflux Ratio [16] | E. coli Efflux Ratio [17] | MIC [18] | MIC [19] | MIC [20] | other results
CCCCC1CC(O)(CN)C2(O)OC3C(NC)C(O)C(NC)C(O)C3OC2O1 [AmTroSPC (13), 3’-(R)-Aminomethyl-6’-propyl-dihydrospectinomycin] | 8 µg/mL (≈ 19.7 µM) | 64 µg/mL (≈ 158 µM) | 128 µg/mL (≈ 316 µM) | 2.71 µM | > 64 µg/mL | > 64 µg/mL | > 64 µg/mL | > 64 µg/mL | 16 to 32 µg/mL (≈ 39.5 to 78.9 µM) | 16 µg/mL (≈ 39.5 µM) | > 64 µg/mL | > 64 µg/mL | > 64 µg/mL | 32 µg/mL (≈ 78.9 µM) | 8 | 1 | >2 | 64 µg/mL (≈ 158 µM) | 64 µg/mL (≈ 158 µM) | > 64 µg/mL | –
CCCC[C@@H]1C[C@@H](N)[C@]2(O)O[C@@H]3[C@@H](NC)[C@@H](O)[C@@H](NC)[C@H](O)[C@H]3O[C@@H]2O1 [Amino TroSPC (11), 3’-(R)-Amino-3’-deoxy-6’-propyl-dihydrospectinomycin trihydrochloride] | 2 µg/mL | 64 µg/mL | 32 µg/mL | 0.64 µM | > 64 µg/mL | > 64 µg/mL | > 64 µg/mL | > 64 µg/mL | 64 µg/mL | 32 µg/mL | > 64 µg/mL | > 64 µg/mL | > 64 µg/mL | 32 µg/mL | 8 | 1 | >2 | 16 µg/mL | 64 µg/mL | > 64 µg/mL | –
CN[C@@H]1[C@H](O)[C@H](NC)[C@H]2O[C@]3(O)[C@H](O[C@@H]2[C@H]1O)O[C@H](C)C[C@H]3NC(=O)Cc1ccccn1 [SPA (3), reference compound] | 4 µg/mL (≈ 8.84 µM) | – | – | – | – | – | – | – | – | – | – | – | – | – | – | 4 | – | 2 µg/mL (≈ 4.42 µM) | – | – | IC50 ([21]; converted from µg/mL to µM from what was previously reported; read-out: Ribo. IC50; cited from earlier work): 1.8 µM
CN[C@@H]1[C@H](O)[C@H](NC)[C@H]2O[C@@]3(O)C(=O)C[C@@H](C)O[C@H]3O[C@@H]2[C@H]1O [SPC (1), spectinomycin] | 4 µg/mL (≈ 12 µM) | 16 µg/mL (≈ 48.1 µM) | – | – | – | – | 512 µg/mL (≈ 1540 µM) | 256 to 512 µg/mL (≈ 770 to 1540 µM) | 16 µg/mL (≈ 48.1 µM) | – | – | 512 µg/mL (≈ 1540 µM) | – | 64 µg/mL (≈ 193 µM) | 16 | 32 | 2 | 64 µg/mL (≈ 193 µM) | 512 µg/mL (≈ 1540 µM) | 128 µg/mL (≈ 385 µM) | MIC ([3]; M. smegmatis strain MC^2 155, 3 days): 64 µg/mL (≈ 193 µM); MIC ([5]; ATCC29212, E. faecalis ATCC 29212, read-out: Minimum Inhibitory Concentration): 256 µg/mL (≈ 770 µM); MIC ([6]; ATCC19434, E. faecium ATCC 19434, read-out: Minimum Inhibitory Concentration): 256 µg/mL (≈ 770 µM); MIC ([10]; ATCC700294, S. pyogenes ATCC 700294, read-out: Minimum Inhibitory Concentration): 32 µg/mL (≈ 96.3 µM); MIC ([11]; ATCC19606, A. baumannii ATCC 19606, read-out: Minimum Inhibitory Concentration): > 1020 µg/mL; MIC ([13]; ATCC15692, P. aeruginosa ATCC 15692, read-out: Minimum Inhibitory Concentration): 1020 µg/mL (≈ 3080 µM); IC50 ([21]; read-out: Ribo. IC50; previously reported; cited from earlier work): 0.8 µM
CCCC[C@@H]1C[C@@H](NC(=O)Cc2ccccn2)[C@]2(O)O[C@@H]3[C@@H](NC)[C@@H](O)[C@@H](NC)[C@H](O)[C@H]3O[C@@H]2O1 [TroSPA (4), 3′-Deoxy-3′(R)-[(pyridin-2-yl)acetylamino]-6’-propyl-dihydrospectinomycin dihydrochloride] | 1 µg/mL | 16 µg/mL | 32 µg/mL | – | > 64 µg/mL | > 64 µg/mL | > 64 µg/mL | > 64 µg/mL | 16 µg/mL | 8 µg/mL | > 64 µg/mL | > 64 µg/mL | > 64 µg/mL | 32 µg/mL | 2 | 4 | >2 | 2 µg/mL | 64 µg/mL | > 64 µg/mL | IC50 [4]: 2.45 µM
CN[C@@H]1[C@H](O)[C@H](NC)[C@H]2O[C@]3(O)[C@H](O[C@@H]2[C@H]1O)O[C@H](C)C[C@@]3(O)CNCc1ccc(F)cc1 [bAmSPC (5), reference compound] | 2 µg/mL (≈ 4.24 µM) | 8 µg/mL (≈ 17 µM) | – | – | – | – | – | – | – | – | – | – | – | – | 8 | 16 | – | 16 µg/mL (≈ 33.9 µM) | 128 µg/mL (≈ 271 µM) | – | IC50 [21, 28]: 1.18 µM
CCCCC1CC(O)(CNCc2ccc(F)cc2)C2(O)OC3C(NC)C(O)C(NC)C(O)C3OC2O1 [bAmTroSPC (6), 3′(R)-[(4-Fluorobenzyl)aminomethyl]-6’-propyl-dihydrospectinomycin trihydrochloride] | 1 µg/mL | 64 µg/mL | 64 µg/mL | 2.49 µM | 32 µg/mL | 32 µg/mL | 64 µg/mL | 16 µg/mL | 4 µg/mL | 2 µg/mL | > 64 µg/mL | > 64 µg/mL | > 64 µg/mL | 4 to 8 µg/mL | 8 | 1 | 4–8 | 8 µg/mL | 64 µg/mL | 32 µg/mL | –
CN[C@@H]1[C@H](O)[C@H](NC)[C@H]2O[C@]3(O)[C@H](O[C@@H]2[C@H]1O)O[C@H](C)C[C@@]3(O)CNCCc1ccc(F)cc1 [eAmSPC (7), reference compound] | 0.5 µg/mL (≈ 1.03 µM) | 1 µg/mL (≈ 2.06 µM) | 4 µg/mL (≈ 8.24 µM) | – | – | – | – | – | – | – | – | – | – | – | 4 | 4 | – | 2 µg/mL (≈ 4.12 µM) | 4 µg/mL (≈ 8.24 µM) | – | IC50 [21, 28]: 1.01 µM
CCCCC1CC(O)(CNCCc2ccc(F)cc2)C2(O)OC3C(NC)C(O)C(NC)C(O)C3OC2O1 [eAmTroSPC (8), 3′(R)-[(4-Fluorophenylethyl)aminomethyl]-6’-propyl-dihydrospectinomycin trihydrochloride] | 0.25 µg/mL | 8 µg/mL | 8 µg/mL | – | 32 µg/mL | 32 µg/mL | 64 µg/mL | 8 µg/mL | 8 µg/mL | 4 µg/mL | > 64 µg/mL | > 64 µg/mL | > 64 µg/mL | 4 to 8 µg/mL | 8 | 1 | 8–16 | 2 µg/mL | 8 µg/mL | 64 µg/mL | IC50 [4]: 2.31 µM
